Test results reported in patent EP0167553B1, “NEW THERAPEUTICAL APPLICATION OF AN INDANE DIONE DERIVATIVE AND PHARMACEUTICAL COMPOSITIONS INTENDED TO SAID UTILIZATION” (priority 1983, dated 1985).
“And” between values parts separate entries of the source, which are not always exact repeats. Equal entries are not always repeated.

Legend:
Rats: Wistar femelles [1] = experiment: Atherogenic diet (modified Aubert technique): biochemical examinations and atherogenic risk; type: in vivo, Rat Wistar; design: score général Biochimie / Risque athérogène Score Total: scale not given here; settings: for Cholesterol LDL Cholesterol HDL Score / Cholesterol T/ Cholesterol HDL Score: atherogenic risk ratio; for score général Biochimie: sum of the individual biochemical scores
Description: (§1) La technique utilisée est celle, légèrement modifiée, de AUBERT D., FERAUD J.C., LACAZE B., PEPINO., PANAK E. et PODESTA M. "Athérogénèse expérimentale chez le Rat Wistar". ATHEROSCLEROSIS 2Q (1974) 263 - 280.
(§2) • - Rats: Wistar femelles, E.O.P.S. en provenance de l'élevage EVIC-CEBA. • - Poids corporel: 160 180 g au départ de l'étude • - Alimentation: UAR A03, enrichi en cholestérol (0,5 %) et en Acide chloique (0,5 %). • - Eau de boisson: eau de ville. • - 15 animaux par lot et par cage MAKROLON SAFI® de 59 x 38,5 cm sur litière de copeaux de bois blanc dépoussiérés. • - Cages placées dans un module animalerie climatisé (20°C * 1°C), à l'humidité constante (50 % ± 10 %). Durée d'éclairement: 12 heures par jour (7 h à 19 h). • - Administration des produits: Après 15 jours de régime athéromateux, on leur administre par voie orale pendant 4 jours 250 000 Ul/kg de vitamine D2 (Stérogyl 15 H) en solution dans l'huile d'olive. On administre ensuite les produits à étudier pendant 4 semaines dès la fin de l'administration de l'agent lésionnel.
L'étude porte sur 5 Lots de 15 rats (tableau N° IV)
En fin d'étude, on pratique sur tous les animaux survivants les examens suivants: • - Cholestérol total, • - Cholestérol estérifié, • - Cholestérol HDL • - Cholestérol LDL (évaluation), • - Lipides totaux, • - Triglycérides.

Rats: Wistar femelles [2] = experiment: Atherogenic diet (modified Aubert technique): histopathological examination; type: in vivo, Rat Wistar; settings: 100 mg/kg; three parameters scored relative to Clofibrate
Description: as §1, §2
Les aortes, les foies et les coeurs sont fixés au Bouitaqueux et inclus à la paraffine après passage par les alcools à concentration croissante et par le toluène.
Les foies sont colorés par la technique à l'hématéine-éosine. Les aortes sont colorées par: • - la technique à l'orcéine - vert lumière afin de mettre en évidence les altérations structurales des lames élastiques. • - la technique à l'acide périodique plus réactif de Schiff pour déceler les dépôts de mucopolysaccharides, • - la technique à l'hématéine plus éosine afin de mettre en évidence les dépôts de calcium.
L'intensité des altérations observées et le degré d'athéromatose sont indiquées par l'un des signes:
• - Pas d'athéromatose 0 • = Très léger degré d'athéromatose 0,5 • + Léger degré d'athéromatose 1 • ++ Moyen degré d'athéromatose 2 • +++Important degré d'athéromatose 3
Les zones athéromateuses sont dénombrées sur une longueur identique pour chacune des aortes examinées. […]

[3] = Earlier anti-inflammatory test; type: in vivo; settings: dose de 250 mg/kg
Rat Wistar = experiment: Hyperlipidaemia induced by Triton WR 1339 injection; type: in vivo; design: Triglycérides, score par rapport au Procétofène 250 mg/kg: scale not given here
Description: L'hyperlipidémie par injection de Triton WR 1339 (marque de fabrique), réalisée chez le Rat Wistar, est antagonisée ou diminuée par l'administration d'agents hypolipémiants.
• - Rats Wistar mâles. • - Poids corporel: 150 -180 grammes. • - Animaux E.O.P.S. (Exempts d'Organisme Pathogène Spécifique). • - Alimentation UAR A04 • - Eau de boisson à volonté • - 6 animaux par lot de traitement et par cage MAKROLON SAFI (marque de fabrique) 60 X 40 cm, sur litière de copeaux de bois dépoussiérés • - Cages placées dans un module animalerie climatisé (19 à 21°C) à degré hygrométrique constant (40 à 60 p.100), dans lequel l'air est renouvelé 10 fois par heure, 12 heures d'éclairement par jour.
• . - 18 h: mise à jeun. • . Temps 0 - administration du Triton WR 1339® (400 mg/kg IP.). • . + 10 mn: administration du produit étudié. • - + 6 h: 1er prélèvement sanguin au sinus rétro-orbitaire. • . + 24 h: 2ème prélèvement sanguin au sinus rétro-orbitaire.
L'essai comporte 8 lots dont un lot témoin (animaux sains) et un lot témoin triton (Tableau I).

[4] = 100 mg/kg, 4 weeks, score relative to Clofibrate (Base 1)
[5] = 125 mg/kg, 6 heures after Triton
[6] = 125 mg/kg, 24 heures after Triton
[7] = 250 mg/kg, 6 heures after Triton
[8] = 250 mg/kg, 24 heures after Triton
[9] = 500 mg/kg, 6 heures after Triton
[10] = 500 mg/kg, 24 heures after Triton
[11] = 750 mg/kg, 6 heures after Triton
[12] = 750 mg/kg, 24 heures after Triton

In the case of `CCOC(=O)C(C)(C)Oc1ccc(Cl)cc1` [Clofibrate], the “Cholesterol LDL Cholesterol HDL Score/Clofibrate” value (Rats: Wistar femelles [1]; 100 mg/kg) was 1.00, the “Cholesterol T/ Cholesterol HDL Score/Clofibrate” value (Rats: Wistar femelles [1]; 100 mg/kg) was 1.00 and the “Risque athérogène Score Total” value (Rats: Wistar femelles [1]; 100 mg/kg) was 2. For the same compound, the “Cholesterol E Score” value (Rats: Wistar femelles [1]; [4]) was 1.00, the “Cholesterol HDL Score” value (Rats: Wistar femelles [1]; [4]) was 1.00 and the “Cholesterol LDL Score” value (Rats: Wistar femelles [1]; [4]) was 1.00. The “Cholesterol T Score” value (Rats: Wistar femelles [1]; [4]) was 1.00, the “Lipides totaux Score” value (Rats: Wistar femelles [1]; [4]) was 1.00 and the “Triglycerides Score” value (Rats: Wistar femelles [1]; [4]) was 1.00. For the same compound, the “Cholesterol LDL Cholesterol HDL Score” value (Rats: Wistar femelles [1]; 100 mg/kg) was 5.35, the “Cholesterol T/ Cholesterol HDL Score” value (Rats: Wistar femelles [1]; 100 mg/kg) was 6.69 and the “score général Biochimie” value (Rats: Wistar femelles [1]; 100 mg/kg) was 6. It also gave a Histologie score (Rats: Wistar femelles [2]) of 3.00.
With `COc1ccc(C(=O)CC2(O)C(=O)c3ccccc3C2=O)cc1OC` [Produit de l'invention, 2-[(3,4-dimethoxybenzoyl)methyl] 2-hydroxy 1,3-dioxo indane] the effet anti-inflammatoire [3] was “effet liminaire anti-inflammatoire”, the “Chol. Total, score par rapport au Procétofène 250 mg/kg” value (from here on “Chol. Total”) (Rat Wistar; [5]) was 2.44 and the “Score Total par rapport au Procétofène 250 mg/kg” value (Rat Wistar; [5]) was 2.75. The “Triglycérides, score par rapport au Procétofène 250 mg/kg” value (Rat Wistar; [5]) was 0.31, the “Chol. HDL/ LDL, score par rapport au Procétofène 250 mg/kg” value (shortened to “Chol. HDL/ LDL”) (Rat Wistar; [6]) was 1.40 and the “Chol. Total” value (Rat Wistar; [6]) was 0.28. For the same compound, the “Score Total par rapport au Procétofène 250 mg/kg” value (Rat Wistar; [6]) was 1.94, the “Triglycérides, score par rapport au Procétofène 250 mg/kg” value (Rat Wistar; [6]) was 0.26 and the “Chol. HDL/ LDL” value (Rat Wistar; [7]) was 0.87. For the same compound, the “Chol. Total” value (Rat Wistar; [7]) was 1.15, the “Lipides Totaux, score par rapport au Procétofène 250 mg/kg” value (Rat Wistar; [7]) was 0.92 and the “Score Total par rapport au Procétofène 250 mg/kg” value (Rat Wistar; [7]) was 3.74. The “Triglycérides, score par rapport au Procétofène 250 mg/kg” value (Rat Wistar; [7]) was 0.80, the “Chol. HDL/ LDL” value (Rat Wistar; [8]) was 1.10 and the “Chol. Total” value (Rat Wistar; [8]) was 1.13. The “Lipides Total, score par rapport au Procétofène 250 mg/kg” value (Rat Wistar; [8]) was 1.56, the “Score Total par rapport au Procétofène 250 mg/kg” value (Rat Wistar; [8]) was 4.64 and the “Triglycérides, score par rapport au Procétofène 250 mg/kg” value (Rat Wistar; [8]) was 0.85. For the same compound, the “Chol. HDL/ LDL” value (Rat Wistar; [9]) was 2.00, the “Chol. Total” value (Rat Wistar; [9]) was 0.35 and the “Lipides Totaux, score par rapport au Procétofène 250 mg/kg” value (Rat Wistar; [9]) was 1.00. The “Score Total par rapport au Procétofène 250 mg/kg” value (Rat Wistar; [9]) was 4.95, the “Triglycérides, score par rapport au Procétofène 250 mg/kg” value (Rat Wistar; [9]) was 1.60 and the “Chol. HDL/ LDL” value (Rat Wistar; [10]) was 0.80. For the same compound, the “Chol. Total” value (Rat Wistar; [10]) was 0.75, the “Lipides Total, score par rapport au Procétofène 250 mg/kg” value (Rat Wistar; [10]) was 1.62 and the “Score Total par rapport au Procétofène 250 mg/kg” value (Rat Wistar; [10]) was 3.66. For the same compound, the “Triglycérides, score par rapport au Procétofène 250 mg/kg” value (Rat Wistar; [10]) was 0.49, the “Chol. Total” value (Rat Wistar; [11]) was 0.78 and the “Lipides Totaux, score par rapport au Procétofène 250 mg/kg” value (Rat Wistar; [11]) was 0.14. The “Score Total par rapport au Procétofène 250 mg/kg” value (Rat Wistar; [11]) was 1.72, the “Triglycérides, score par rapport au Procétofène 250 mg/kg” value (Rat Wistar; [11]) was 0.80 and the “Chol. HDL/ LDL” value (Rat Wistar; [12]) was 0.40. The “Chol. Total” value (Rat Wistar; [12]) was 0.61, the “Score Total par rapport au Procétofène 250 mg/kg” value (Rat Wistar; [12]) was 1.73 and the “Triglycérides, score par rapport au Procétofène 250 mg/kg” value (Rat Wistar; [12]) was 0.72. For the same compound, the “hyperlipémie provoquée par le Triton WR 1339” value (Rat Wistar; dès la dose de 125 mg/kg par voie orale, Rat) was “antagonisée au diminuée”, the “Cholesterol LDL Cholesterol HDL Score/Clofibrate” value (Rats: Wistar femelles [1]; 100 mg/kg) was 0.46 and the “Cholesterol T/ Cholesterol HDL Score/Clofibrate” value (Rats: Wistar femelles [1]; 100 mg/kg) was 0.44. For the same compound, the “Risque athérogène Score Total” value (Rats: Wistar femelles [1]; 100 mg/kg) was 0.90, the “Cholesterol E Score” value (Rats: Wistar femelles [1]; [4]) was 1.05 and the “Cholesterol LDL Score” value (Rats: Wistar femelles [1]; [4]) was 1.04. For the same compound, the “Cholesterol T Score” value (Rats: Wistar femelles [1]; [4]) was 1.14, the “Lipides totaux Score” value (Rats: Wistar femelles [1]; [4]) was 1.37 and the “Triglycerides Score” value (Rats: Wistar femelles [1]; [4]) was 1.07. The “Cholesterol LDL Cholesterol HDL Score” value (Rats: Wistar femelles [1]; 100 mg/kg) was 15.63, the “Cholesterol T/ Cholesterol HDL Score” value (Rats: Wistar femelles [1]; 100 mg/kg) was 17.81 and the “score général Biochimie” value (Rats: Wistar femelles [1]; 100 mg/kg) was 5.6 and 5.67. The “activité sur les paramètres biochimiques” value (Rats: Wistar femelles [1]; compared with Clofibrate at the same dose) was “aussi actif que le Clofibrate”, the “activité anti-lipémiante” value (Rats: Wistar femelles [1]; dès la dose de 100 mg/kg) was “nette activité anti-lipémiante” and the Histologie score (Rats: Wistar femelles [2]) was 1.3 and 1.32.
